The values that follow come from paper PMC5467173, “Blood-brain-barrier spheroids as an in vitro screening platform for brain-penetrating agents” (Nature Communications, 2017).

The subject of series [1] is multicellular BBB spheroids (astrocytes, HBVP and hCMEC/D3). Put plainly: Transport of fluorescently labelled peptides / CPP screen in multicellular BBB spheroids (hCMEC/D3), confocal microscopy. Type of series: in vitro ADME, human. As to the method: Sterile 1% agarose (w/v) was prepared by adding […] of molecular biology grade agarose (Bio-rad) into 50 ml of PBS in a conical flask, and boiled in a microwave until completely dissolved. The melted agarose solution was transferred into a sterile tissue culture hood, and 50 μl of the solution was dispensed into each well of a 96-well plate while it was still hot using a multi-channel pipette, and allowed to cool/solidify (∼15 min). Primary human astrocytes, HBVP and HBMEC were released by trypsin/EDTA (Thermo Scientific) and resuspended in HBMEC working medium. The concentration of each cell type was determined using a haemocytometer. 1 × 10^3 of each cell type was seeded onto the agarose gel in each well of the 96-well plate in a 1:1:1 ratio (final volume=100 μl). Cells were placed in a humidified incubator at 37 °C with 5% CO2, and 95% natural air for 48–72 h to allow for the assembly of multicellular BBB spheroids. For spheroid formation using the immortalized hCMEC/D3 EC line: hCMEC/D3, astrocytes and HBVP were released by trypsin/EDTA and resuspended in hCMEC/D3 working medium. 1.5 × 10^3 of each cell type were seeded onto the agarose gel in each well of the 96-well plate in a 1:1:1 ratio, and spheroids were allowed to form as described above.
Angiopep-2 (or scramble) peptide labelled with a Cy5 was added into each tube at a final concentration of 5 and 10 μM, and incubated for 3 h at 37 °C on a rotator. Spheroids were washed with PBS, fixed with 3.7% formaldehyde and imaged using a confocal microscope as described in earlier sections. […] The same methodology was applied for angiopep-2/scramble peptide labelled with a TAMRA (tetramethylrhodamine) dye. To inhibit transcytosis, spheroids were incubated with each peptide (5 μM final concentration) in cold working medium (on ice) for 3 h. For cryo-sectioning, spheroids were embedded in optimum cutting temperature compound (Tissue-Tek, Sakura Finetek, Torrance, CA), frozen on dry ice and sliced into 10 μm sections. Spheroid sections were imaged under a Nikon epi-fluorescence inverted microscope. […]

Series [2] in a line: Stability in hCMEC/D3 working media containing 2% human serum. Type of series: in vitro ADME. The conditions noted are these: Cy5.5-CPP 5 μM in hCMEC/D3 working media (2% human serum), 37 °C, LC-MS extracted ion current, (EICt3/EICt0) × 100. As to the method: Cy5.5-angiopep and Cy5.5-scramble. Angiopep and scramble peptides (50 μM) were incubated in hCMEC/D3 working media (containing 2% human serum) at 37 °C. […] The material was resuspended in 30 μl of 50:50 water:acetonitrile containing 0.1% TFA. […] The process was repeated (n=3) for each peptide.

Series [3] deals with multicellular BBB spheroids (astrocytes, HBVP and HBMEC). Put plainly: Transport of fluorescently labelled peptides into multicellular BBB spheroids (primary HBMEC), confocal microscopy. Type of series: in vitro ADME, human.
Method: Multicellular BBB spheroids (composed of astrocytes, HBVP and HBMEC (or hCMEC/D3)) were established for 48–72 h as described earlier, and pooled into a 1.5 ml Lobind microcentrifuge tube (Eppendorf) in 1.0 ml HBMEC (or hCMEC/D3) working media. […] Spheroids were washed with PBS, fixed with 3.7% formaldehyde and imaged using a confocal microscope as described in earlier sections. The mean fluorescence intensity inside each spheroid at 88 μm depth was quantified using ImageJ software and plotted using GraphPad Prism. […] To inhibit transcytosis, spheroids were incubated with each peptide (5 μM final concentration) in cold working medium (on ice) for 3 h. For cryo-sectioning, spheroids were embedded in optimum cutting temperature compound (Tissue-Tek, Sakura Finetek, Torrance, CA), frozen on dry ice and sliced into 10 μm sections. Spheroid sections were imaged under a Nikon epi-fluorescence inverted microscope.
For series [4], the system named is hCMEC/D3 / HBVP / astrocyte triple co-culture transwell model. The format is in vitro ADME, human. As to the method:
Both the apical and basal sides of 24-well transwell insert (0.4 μm pore size; Greiner Bio-One, Cat. # 662,641) were coated with rat-tail collagen (5 μg ml^−1 in PBS; Olaf Pharmaceuticals, Worcester, MA) overnight at 4 °C. Each transwell was inverted, and 5 × 10^4 HBVP cells (in 50 μl pericyte medium) were seeded on the basal side of the insert. The inserts were encased in an inverted plate, and allowed to adhere in a humidified incubator for 2 h at 37 °C with 5% CO2. Inserts were then removed and placed within a 24-well plate (upright) containing 300 μl pericyte medium, ensuring that the HBVP cells on the basal side of the insert was properly submerged in the medium. […] hCMEC/D3 cells were seeded on the apical side of the insert (in 200 μl volume) in EGM-2. In a separate 24-well plate, 5.0 × 10^4 astrocytes were seeded in AGM. […] TEER measurements of inserts without cells were subtracted from TEER values obtained from inserts containing cells (measured in ohms (Ω)). […]
After 84 h of co-culture in the transwell, TAMRA- angiopep-2 or TAMRA-scramble were added into the apical side of the insert at a final concentration of 10 μM. […] To assess the apical-to-basolateral permeability, the mean fluorescence intensity of the basal side of the transwell was quantified over time using ImageJ software and plotted using GraphPad Prism.

The test system of series [5] is brain parenchyma. Put plainly: Ex vivo imaging of angiopep-2 in mouse brain after tail vein injection. As to conditions: Cy5.5-labelled peptide, 100 μg via tail vein, mice killed after 24 h. The procedure: Cy5.5-angiopep-2 or Cy5.5-scramble were diluted to a final concentration of 1 mg ml^−1 in 0.9% NaCl irrigation solution (Hospira, Lake Forest, IL). 100 μl of each peptide (total of 100 μg) was administered intravenously via tail vein injection. After 24 h, mice were killed (by CO2 asphyxiation), and immediately perfused with PBS followed by 10% formalin solution (Sigma-Aldrich). Brains were excised, and a coronal cut through the cerebral cortex was made with a sharp scalpel. The brains were washed several times with PBS containing 0.05% Tween-20, and incubated with DyLight 488 lectin (Vector Laboratories, Burlingame, CA) and Hoechst dye (Life Technologies; 1:1,000 dilution) for 1 h in PBS containing 0.02% Tween-20. This was followed by 3 washes (15 min each) with PBS containing 0.05% Tween-20. […] The brain tissue was imaged under a confocal microscope using a × 40 oil immersion objective. Z-slices captured through each spheroid (up to 100 μm-deep) were merged to generate a 2D maximum intensity projection using the ZEN blue imaging software (version 2012). Animal experiments described here are listed in the Brigham and Women’s Hospital Animal Experimentation Protocol 2016N000300 Translational Neurooncology Core (BWH IACUC approved 2016).

Series [6] deals with BBB spheroid surface barrier. Put plainly: Co-incubation with high molecular weight dextran (integrity of spheroid surface barrier). As to conditions: drug 10 μM with FITC-dextran 70 kDa 10 μg ml^−1, 24 h; 88 μm depth; nspheroid=3–6.
Method: Multicellular BBB spheroids were formed through co-culturing astrocytes, HBVP and either HBMEC or hCMEC/D3 as described earlier for 48 h. Spheroids were incubated with increasing concentration of VEGF-A (between 5 and 100 ng ml^−1) and 10 μg ml^−1 of TRITC-Dextran (155 kDa; Sigma-Aldrich) or FITC-Dextran (70 kDa; Sigma-Aldrich) in the appropriate working medium for 24 h at 37 °C with 5% CO2. Spheroids were washed 3 times with PBS (5 min each), transferred into a Nunc Lab-Tek II thin-glass 8-well chambered coverglass (Thermo Scientific) and imaged under a confocal microscope as described earlier. Quantification of spheroid permeability to fluorescent dextran was performed using ImageJ software (http://imagej.net/Fiji). The mean fluorescence intensity of the core of each spheroid at 88 μm depth was quantified and plotted using GraphPad Prism (version 7.0 software).
To examine if angiopep-2 affects the overall permeability of the spheroid surface barrier, spheroids were co-incubated with 10 μM of TAMRA-angiopep (or TAMRA-scramble) and FITC-dextran (70 kDa; 10 μg ml^−1) as described earlier for 3 h at 37 °C on a rotator. […] The mean TAMRA and FITC fluorescence intensity of the core of each spheroid at 88 μm depth was quantified using ImageJ software and plotted using GraphPad Prism.
The test system of series [7] is BBB spheroids (astrocytes, HBVP and hCMEC/D3 cells). Put plainly: Evaluation of small molecule transport into BBB spheroids using MALDI-MSI. As to conditions: 10 μM, 24 h, 37 °C; 12 μm sections; 30 μm pixel step; nspheroid=150, ntissue=2. Type of series: in vitro ADME, human. The procedure:
BBB spheroids were established (using astrocytes, HBVP and hCMEC/D3 cells) for 48 h as described earlier. Approximately 150 spheroids per group were pooled into a 1.5 ml microcentrifuge tube in 1 ml of hCMEC/D3 working media. BKM120 or Dabrafenib was added into each tube at a final concentration of 10 μM and incubated for 24 h at 37 °C under constant rotation. Spheroids were washed 5 × with wash buffer (150 mM ammonium acetate in HPLC grade water, pH 7), and then transferred into an UltraFlux 0.2 ml PCR tube (BioExpress) in 200 μl of wash buffer. The spheroids were then, pooled at the bottom of the tube, and snap-frozen in a dry ice/ethanol bath. The top of the frozen tube was mounted onto a cryostat holder, and the bottom of the tube containing the spheroids was sectioned into 12 μm slices using a Microm HM550 cryostat, with the chamber and the specimen holder chilled at −26 °C. Sectioned tissues embedded in the frozen wash buffer were thaw-mounted onto indium tin oxide (ITO) coated microscopic slides (Bruker Daltonics) for MALDI-MSI, and regular positively charged glass slides for haematoxylin and eosin (H/E) staining. The tissues were allowed to dry for at least 15 min in a dessicator. […]

The conditions of series [8]: cited from earlier work. From the text:
Because most drugs are non-fluorescent, we explored an alternative strategy to detect drugs within the BBB spheroids using matrix-assisted laser desorption/ionization mass spectrometry imaging (MALDI-MSI).

For LRRERQSRLRRERQSR [DPV15], the “Influx rate at earlier time points (15 min–1 h)” value (from here on “Influx rate”) in series [1] is given as “highest influx rate”.

For “RKKRRQRRR [HIV-1 Tat, established brain-penetrating standard]”, the “product remaining after 3 h in working media” value in series [2] came to 50%.

Consider angiopep-2, for which the “Influx of TAMRA-labelled peptide on co-incubation with FITC-dextran” value in series [3] (10 μM peptide, FITC-dextran 70 kDa 10 μg ml^−1, 3 h, 37 °C, 88 μm depth, nspheroid=3–6, nexperiment=3, versus scrambled peptide) was “significantly higher influx”. The “Peptide level in the core of fixed, cryosectioned spheroids (fluorescence microscopy)” value in series [3] (10 μm cryosections, epi-fluorescence) is “high level”. Besides, in series [3] (spheroids with primary HBMECs, 10 μM, 3 h, 88 μm depth), the “Influx of Cy5-labelled peptide at 4 °C (transcytosis inhibited) versus 37 °C” value is recorded as “significantly reduced”. Further, in series [3] (spheroids with primary HBMECs, 5 and 10 μM, 3 h, 37 °C, confocal microscopy, compared with scrambled control, nspheroid=10, nexperiment=3), the “Influx of Cy5-labelled peptide into spheroid (mean Cy5 intensity at 88 μm depth)” value is listed as “substantial influx”. In addition, in series [4], the “Apical-to-basolateral permeability in co-culture transwell compared to inserts with no ECs” value is listed as “significantly lower permeability” and the “Transwell permeability of angiopep-2 versus scrambled control” value was “unable to differentiate”. Further, the “Accumulation in the brain parenchyma in vivo (fluorescence of brain cryosections)” value in series [5] is “extravasation and accumulation”.

`Nc1cc(C(F)(F)F)c(-c2cc(N3CCOCC3)nc(N3CCOCC3)n2)cn1` [BKM120]: the “Effect on ability of BBB spheroids to restrict entry of high molecular weight dextran” value in series [6] is “did not affect”. In addition, in series [7], the “Drug detected in sections of BBB spheroids by MALDI-MSI” value was “dramatic accumulation”. Also, the BBB penetrance entry in series [8] was “known to cross the BBB”.

Regarding `CC(C)(C)c1nc(-c2cccc(NS(=O)(=O)c3c(F)cccc3F)c2F)c(-c2ccnc(N)n2)s1` [dabrafenib], the “Effect on ability of BBB spheroids to restrict entry of high molecular weight dextran” value in series [6] is recorded as “did not affect”. Further, in series [7], the “Drug detected in sections of BBB spheroids by MALDI-MSI” value is on record as “not detected”. Also, the BBB penetrance result in series [8] is recorded as “limited BBB penetrance”.

With “VPALR [Bip(1), Cy5.5-labelled hydrophobic CPP from natural protein]”, the “Influx rate” value in series [1] was “highest influx rate”.

As for “VSALK [Bip(2), Cy5.5-labelled hydrophobic CPP from natural protein]”, the “Influx rate” value in series [1] is reported as “highest influx rate”.
